The values that follow come from patent US12053459B2, “CDK2 inhibitors and methods of using the same” (Cedilla Therapeutics, Inc., priority 2021, dated 2024).

SMILES strings stand for the structures. Some results are limits rather than exact numbers.

Assay [1] deals with CDK2/Cyclin E1(14-475) (Homo sapiens, UniProt P24941). The assay is described as follows: Caliper LabChip EZ Reader mobility shift assay, inhibition of CDK2/Cyclin E1 activity. Format: biochemical. To be noted: class symbols A-D. In short, it runs like this: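 CDK2/Cyclin E1(14-475) pre-incubated 30 min with compound and ATP, then reaction started with 5-FAM-QSPKKG-CONH2; final 2.5 nM enzyme, 100 μM ATP, 1.5 μM peptide, HEPES pH 7.5. Stopped with EDTA after 100 min; substrate/product conversion by capillary electrophoresis mobility shift, IC50 from four-parameter fit.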

For assay [2], the system named is Kuramochi cells. The experiment in a line: BrdU cell proliferation assay (colorimetric ELISA), Kuramochi cells. Format: cell-based. To be noted: class symbols A-D. In short, it runs like this:
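Kuramochi cells (2,000/well, with Kuramochi RB^KO cells as a specificity control) were treated with a 4-point, 3-fold dilution series made from 10 mM compound stocks and left for 4 days at 37 °C. Proliferation was measured by 1 h BrdU labelling, then anti-BrdU peroxidase ELISA read at 450 nm. Signals were background-subtracted and normalized to DMSO wells.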
On the technique in general: An ELISA detects its analyte on a solid surface through an enzyme-linked reagent.

On to `CNC(=O)[C@H](CCCc1ccccc1)NC(=O)C1CN(C(=O)c2ocnc2C)CC2CN(C(=O)c3ccc(OC(C)C)c(OC)c3)CC21` (stereo partly drawn) [I-187], for which the IC50 in assay [1] and in assay [2] was > 10 µM each time.
Take `CNC(=O)[C@H](CCCc1ccccc1)NC(=O)C1CN(C(=O)c2oc(C)nc2C)CC2CN(C(=O)c3ccc(OC(C)C)c(OC)c3)CC21` (stereo partly drawn) [I-188]: the IC50 in assay [1] and in assay [2] was > 10 µM each time.
Consider `CNC(=O)[C@H](CCCc1ccccc1)NC(=O)C1CN(C(=O)c2ccc(C)[nH]2)CC2CN(C(=O)c3ccc(OC(C)C)c(OC)c3)CC21` (stereo partly drawn) [I-189], for which the IC50 in assay [1] and in assay [2] was > 10 µM in each case.
As for `CNC(=O)[C@H](CCCc1ccccc1)NC(=O)C1CN(C(=O)c2c[nH]c3ccc(F)cc23)CC2CN(C(=O)c3ccc(OC(C)C)c(OC)c3)CC21` (stereo partly drawn) [I-190], the IC50 in assay [1] and in assay [2] was > 10 µM in each case.
As for `CNC(=O)[C@H](CCCc1ccccc1)NC(=O)C1CN(C(=O)c2c[nH]c3c(C)cccc23)CC2CN(C(=O)c3ccc(OC(C)C)c(OC)c3)CC21` (stereo partly drawn) [I-191], the IC50 in assay [1] and in assay [2] was > 10 µM in each case.
Turning to `CNC(=O)[C@H](CCCc1ccccc1)NC(=O)C1CN(C(=O)CCCc2ccccn2)CC2CN(C(=O)c3ccc(OC(C)C)c(OC)c3)CC21` (stereo partly drawn) [I-192], the IC50 in assay [1] and in assay [2] was > 10 µM each time.
With `CNC(=O)[C@H](CCCc1ccccc1)NC(=O)C1CN(C(=O)c2ncoc2C)CC2CN(C(=O)c3ccc(OC(C)C)c(OC)c3)CC21` (stereo partly drawn) [I-193], the IC50 in assay [1] and in assay [2] was > 10 µM throughout.
Consider `CNC(=O)[C@H](CCCc1ccccc1)NC(=O)C1CN(C(=O)c2ncc(Cl)cn2)CC2CN(C(=O)c3ccc(OC(C)C)c(OC)c3)CC21` (stereo partly drawn) [I-196], for which the IC50 in assay [1] and in assay [2] was > 10 µM in each case.
As for `CNC(=O)[C@H](CCCc1ccccc1)NC(=O)C1CN(C(=O)c2cc(Cl)[nH]n2)CC2CN(C(=O)c3ccc(OC(C)C)c(OC)c3)CC21` (stereo partly drawn) [I-197], the IC50 in assay [1] and in assay [2] was > 10 µM throughout.
In the case of `CNC(=O)[C@H](CCCc1ccccc1)NC(=O)C1CN(C(=O)Cc2cc[nH]n2)CC2CN(C(=O)c3ccc(OC(C)C)c(OC)c3)CC21` (stereo partly drawn) [I-198], the IC50 in assay [1] and in assay [2] was > 10 µM in each case.
As for `CNC(=O)[C@H](CCCc1ccccc1)NC(=O)C1CN(C(=O)c2ccc3cccn3c2)CC2CN(C(=O)c3ccc(OC(C)C)c(OC)c3)CC21` (stereo partly drawn) [I-199], the IC50 in assay [1] and in assay [2] was > 10 µM each time.
Regarding `CNC(=O)[C@H](CCCc1ccccc1)NC(=O)C1CN(C(=O)Cc2c[nH]c3ccc(OC)cc23)CC2CN(C(=O)c3ccc(OC(C)C)c(OC)c3)CC21` (stereo partly drawn) [I-200], the values for the IC50 in assay [1] and in assay [2] were 5 to 10 µM and > 10 µM, respectively.
For the compound `CNC(=O)[C@H](CCCc1ccccc1)NC(=O)C1CN(C(=O)Cc2c(C)[nH]c3ccccc23)CC2CN(C(=O)c3ccc(OC(C)C)c(OC)c3)CC21` (stereo partly drawn) [I-201], the IC50 (usually the concentration that gives 50% inhibition) was 0.5 to 5 µM in assay [1] and > 10 µM in assay [2].
For `CNC(=O)[C@H](CCCc1ccccc1)NC(=O)C1CN(C(=O)Cc2ccncc2)CC2CN(C(=O)c3ccc(OC(C)C)c(OC)c3)CC21` (stereo partly drawn) [I-202], the IC50 in assay [1] and in assay [2] was > 10 µM each time.
On to `CNC(=O)[C@H](CCCc1ccccc1)NC(=O)C1CN(C(=O)Cc2c[nH]c3cc(C#N)ccc23)CC2CN(C(=O)c3ccc(OC(C)C)c(OC)c3)CC21` (stereo partly drawn) [I-203], for which the IC50 in assay [1] was 0.5 to 5 µM; in assay [2], > 10 µM.
With `CNC(=O)[C@H](CCCc1ccccc1)NC(=O)C1CN(C(=O)Cc2coc3cc(Cl)ccc23)CC2CN(C(=O)c3ccc(OC(C)C)c(OC)c3)CC21` (stereo partly drawn) [I-204], the values for the IC50 in assay [1] and in assay [2] were 0.5 to 5 µM and > 10 µM, respectively.
The like results for `CNC(=O)[C@H](CCCc1ccccc1)NC(=O)C1CN(C(=O)Cc2n[nH]c3cc(Cl)ccc23)CC2CN(C(=O)c3ccc(OC(C)C)c(OC)c3)CC21` (stereo partly drawn) [I-205] were, in that order, 0.5 to 5 µM and > 10 µM.
`CNC(=O)[C@H](CCCc1ccccc1)NC(=O)C1CN(C(=O)c2cncs2)CC2CN(C(=O)c3ccc(OC(C)C)c(OC)c3)CC21` (stereo partly drawn) [I-206]: the IC50 in assay [1] and in assay [2] was > 10 µM in each case.
As to `CNC(=O)[C@H](CCCc1ccccc1)NC(=O)C1CN(C(=O)C2CCOCC2)CC2CN(C(=O)c3ccc(OC(C)C)c(OC)c3)CC21` (stereo partly drawn) [I-207], the IC50 in assay [1] and in assay [2] was > 10 µM each time.
Turning to `CNC(=O)[C@H](CCCc1ccccc1)NC(=O)C1CN(C(=O)c2ccc(C#N)cn2)CC2CN(C(=O)c3ccc(OC(C)C)c(OC)c3)CC21` (stereo partly drawn) [I-208], the IC50 in assay [1] and in assay [2] was > 10 µM in each case.
For the compound `CNC(=O)[C@H](CCCc1ccccc1)NC(=O)C1CN(C(=O)c2cccc(CO)n2)CC2CN(C(=O)c3ccc(OC(C)C)c(OC)c3)CC21` (stereo partly drawn) [I-209], the IC50 in assay [1] and in assay [2] was > 10 µM in each case.
In the case of `CNC(=O)[C@H](CCCc1ccccc1)NC(=O)C1CN(C(=O)c2cccc(-c3cccnc3)c2)CC2CN(C(=O)c3ccc(OC(C)C)c(OC)c3)CC21` (stereo partly drawn) [I-210], the IC50 in assay [1] and in assay [2] was > 10 µM throughout.
`CNC(=O)[C@H](CCCc1ccccc1)NC(=O)C1CN(C(=O)c2cncc(C)n2)CC2CN(C(=O)c3ccc(OC(C)C)c(OC)c3)CC21` (stereo partly drawn) [I-211]: the IC50 in assay [1] and in assay [2] was > 10 µM in each case.
For the compound `CNC(=O)[C@H](CCCc1ccccc1)NC(=O)C1CN(C(=O)Cc2c[nH]c3cnccc23)CC2CN(C(=O)c3ccc(OC(C)C)c(OC)c3)CC21` (stereo partly drawn) [I-212], the IC50 in assay [1] and in assay [2] was > 10 µM throughout.
Take `CNC(=O)[C@H](CCCc1ccccc1)NC(=O)C1CN(C(=O)c2cccc3cc[nH]c23)CC2CN(C(=O)c3ccc(OC(C)C)c(OC)c3)CC21` (stereo partly drawn) [I-213]: the IC50 in assay [1] and in assay [2] was > 10 µM in each case.
Take `CCc1ccc(C(=O)N2CC3CN(C(=O)c4ccc(OC(C)C)c(OC)c4)CC3C(C(=O)N[C@@H](CCCc3ccccc3)C(=O)NC)C2)nc1` (stereo partly drawn) [I-214]: the IC50 in assay [1] and in assay [2] was > 10 µM in each case.
Consider `CNC(=O)[C@H](CCCc1ccccc1)NC(=O)C1CN(C(=O)c2ccn(C)c2)CC2CN(C(=O)c3ccc(OC(C)C)c(OC)c3)CC21` (stereo partly drawn) [I-215], for which the IC50 in assay [1] and in assay [2] was > 10 µM throughout.
With `CNC(=O)[C@H](CCCc1ccccc1)NC(=O)C1CN(C(=O)c2ccc(OC)nn2)CC2CN(C(=O)c3ccc(OC(C)C)c(OC)c3)CC21` (stereo partly drawn) [I-216], the IC50 in assay [1] and in assay [2] was > 10 µM each time.
Take `CNC(=O)[C@H](CCCc1ccccc1)NC(=O)C1CN(C(=O)Cc2c[nH]c3cccc(C)c23)CC2CN(C(=O)c3ccc(OC(C)C)c(OC)c3)CC21` (stereo partly drawn) [I-217]: the IC50 in assay [1] and in assay [2] was > 10 µM in each case.
With `CNC(=O)[C@H](CCCc1ccccc1)NC(=O)C1CN(C(=O)Cc2cn(CCOC)c3ccccc23)CC2CN(C(=O)c3ccc(OC(C)C)c(OC)c3)CC21` (stereo partly drawn) [I-218], the IC50 in assay [1] and in assay [2] was > 10 µM throughout.
`CNC(=O)[C@H](CCCc1ccccc1)NC(=O)C1CN(C(=O)Cc2c[nH]c3ccc(C)cc23)CC2CN(C(=O)c3ccc(OC(C)C)c(OC)c3)CC21` (stereo partly drawn) [I-219]: the IC50 is 0.5 to 5 µM in assay [1] and > 10 µM in assay [2].
As for `CNC(=O)[C@H](CCCc1ccccc1)NC(=O)C1CN(C(=O)Cc2c[nH]c3ccc(Cl)cc23)CC2CN(C(=O)c3ccc(OC(C)C)c(OC)c3)CC21` (stereo partly drawn) [I-220], the IC50 in assay [1] and in assay [2] was > 10 µM in each case.
In the case of `CNC(=O)[C@H](CCCc1ccccc1)NC(=O)C1CN(C(=O)Cc2c[nH]c3ccccc23)CC2CN(C(=O)c3ccc(OC(C)C)c(OC)c3)CC21` (stereo partly drawn) [I-223], the half-maximal inhibitory concentration (IC50) in assay [1] and in assay [2] was > 10 µM in each case.
For the compound `CNC(=O)[C@H](CCCc1ccccc1)NC(=O)C1CN(C(=O)Cc2cn(C)c3cc(Cl)ccc23)CC2CN(C(=O)c3ccc(OC(C)C)c(OC)c3)CC21` (stereo partly drawn) [I-225], the IC50 is 0.5 to 5 µM in assay [1] and > 10 µM in assay [2].
Consider `CNC(=O)[C@H](CCCc1ccccc1)NC(=O)C1CN(C(=O)C(C)c2c[nH]c3cc(Cl)ccc23)CC2CN(C(=O)c3ccc(OC(C)C)c(OC)c3)CC21` (stereo partly drawn) [I-226], for which the values for the IC50 in assay [1] and in assay [2] were 0.5 to 5 µM and 5 to 10 µM, respectively.
Take `CNC(=O)[C@H](CCCc1ccccc1)NC(=O)C1CN(C(=O)Cc2c[nH]c3cc(Cl)c(Cl)cc23)CC2CN(C(=O)c3ccc(OC(C)C)c(OC)c3)CC21` (stereo partly drawn) [I-227]: the figures for the IC50 in assay [1] and in assay [2] were ≤ 0.5 µM and > 10 µM, respectively.
On the same counts, the results for `CNC(=O)[C@H](CCCc1ccccc1)NC(=O)C1CN(C(=O)c2c[nH]c3cc(C)ccc23)CC2CN(C(=O)c3ccc(OC(C)C)c(OC)c3)CC21` (stereo partly drawn) [I-228] are > 10 µM and > 10 µM.
In the case of `CNC(=O)[C@H](CCCc1ccccc1)NC(=O)C1CN(C(=O)Cc2c[nH]c3c(OC)cccc23)CC2CN(C(=O)c3ccc(OC(C)C)c(OC)c3)CC21` (stereo partly drawn) [I-229], the IC50 in assay [1] and in assay [2] was > 10 µM throughout.
As for `CNC(=O)[C@H](CCCc1ccccc1)NC(=O)C1CN(C(=O)Cc2cnccn2)CC2CN(C(=O)c3ccc(OC(C)C)c(OC)c3)CC21` (stereo partly drawn) [I-230], the IC50 in assay [1] and in assay [2] was > 10 µM throughout.
`CNC(=O)[C@H](CCCc1ccccc1)NC(=O)C1CN(C(=O)Cc2c[nH]c3cc(C)ccc23)CC2CN(C(=O)c3ccc(OC(C)C)c(OC)c3)CC21` (stereo partly drawn) [I-231]: the IC50 in assay [1] is 5 to 10 µM; in assay [2], > 10 µM.
For the compound `CNC(=O)[C@H](CCCc1ccccc1)NC(=O)C1CN(C(=O)Cc2c[nH]c3cc(OCC4CC4)ccc23)CC2CN(C(=O)c3ccc(OC(C)C)c(OC)c3)CC21` (stereo partly drawn) [I-234], the IC50 in assay [1] and in assay [2] was > 10 µM each time.
As to `CNC(=O)[C@H](CCCc1ccccc1)NC(=O)C1CN(C(=O)Cc2c[nH]c3ccc(Br)cc23)CC2CN(C(=O)c3ccc(OC(C)C)c(OC)c3)CC21` (stereo partly drawn) [I-237], the results for the IC50 in assay [1] and in assay [2] were ≤ 0.5 µM and > 10 µM, respectively.
